Experimental data taken from patent US20060252670A1, “Method of reducing drug-induced adverse side effects in a patient” (Intercept Pharmaceuticals Inc., priority 2004, published 2006).
Like-named read-outs stand apart in the source and are kept apart here.

Experiments:
[1] = Type II diabetic obese patient switched from rosiglitazone to 6ECDCA plus rosiglitazone; assay type: in vivo, human; settings: rosiglitazone 8 mg daily 4 weeks then 4 mg daily 6 weeks by mouth
Method: The patient is started on a combination of 6ECDCA (150 mg) and rosiglitizone (2 mg) daily by mouth.

[2] = cited from earlier work
[3] = system: liver fibrosis induced by porcine serum; assay: Liver fibrosis induced by 8-week porcine serum administration to rats: 6-ECDCA, rosiglitazone and combination; assay type: in vivo, rat; settings: for ALP / ALT / Bilirubin / Liver/b.w.: porcine serum rats, 8 weeks, mean ± SE
Method: To investigate whether 6-ECDCA was effective in regulating PPARγ expression, porcine serum-administered rats (6-8 each group) were randomized to receive 1 and 3 mg/kg 6-ECDCA via gavage 5 times a week. Control rats were administered 3% carboxy-methyl cellulose (CMC) by gavage. At the end of the study, rats were sacrificed under anaesthesia with sodium pentobarbital (50 mg/kg, i.p.) and terminally bled via cardiac puncture. The liver was removed for examination and blood samples were taken.
Groups and duration of treatment are described in Table 1 below. Animals were followed for 8 weeks.
Collagen surface density was quantified using a computerized image analysis system (Image Acquisition System Ver. 005, Delta Sistemi, Rome, Italy) (see Fiorucci et al., supra). Hepatic and urinary content of hydroxyproline were determined by HPLC (LC Varian Prostar HPLC, Varian, Rome, Italy) as described in Fiorucci et al. (supra). The ANOVA followed by Dunnett or Bonferroni correction for multiple comparison were applied when appropriate during statistical analysis. EC50 were calculated using Prism III (Graphpad Software. Inc., San Diego, Calif.).

[4] = system: primary cultures of rat HSCs; assay: PPARγ expression in primary cultures of rat HSCs with FXR ligands (qRT-PCR, Western blot); assay type: cell-based
Method: However, whether or not FXR interacts with PPARγ, has so far been unknown. In order to investigate if FXR interacts with PPARγ, in vitro studies were performed on primary cultures of rat HSCs and HSC-T6 (i.e., a rat immortalised HSCs line). Primary rat HSCs were isolated from control and cirrhotic rats according to techniques known in the art. […] Cells were cultured at 37° C. in an atmosphere of 5% CO2 in Dulbecco's modified minimal essential medium (Gibco BRL Life Technologies, Rockville, Md.) containing 10% fetal calf serum (FCS), 2 mM L-glutamine, and 5,000 IU/ml penicillin/[…] streptomycin. […] HSCs were incubated with or without 6-ECDCA, 1 μM, for 24 hours at 37° C. in DMEM. […] The proteins were then transferred to nitrocellulose membranes (Biorad, Hercules, Calif.) and probed with primary antibodies to FXR and PPARγ (Santa Cruz Biotechnology, Santa Cruz, Calif.).
PPARγ expression normally decreases during HSC trans-differentiation. […] To further investigate whether ligands of FXR and PPARγ might cooperate in repressing α1 (1) collagen gene expression, HSC-T6 were exposed to effective concentrations of the two ligands.

liver fibrosis = assay: Gene expression in three rat models of liver fibrosis (porcine serum, BDL, CCl4) treated with FXR ligand; assay type: in vivo; settings: rats, 3 mg/kg
Method: In order to further investigate whether in vivo administration of FXR ligands would modulate the expression of PPARγ, three different models of liver fibrosis were used, i.e., porcine serum administration, bile duct ligation (BDL), and CCL4 intoxication. Male Wistar rats (200-250 g) were obtained from Charles River Breeding Laboratories (Monza, Italy) and maintained on standard laboratory rat chow on a 12 hour light/dark cycle. […] (2004) Gastroenterology 14:1444-1356). […] At the end of the study, rats were sacrificed under anaesthesia with sodium pentobarbital (50 mg/kg, i.p.) and terminally bled via cardiac puncture. The liver was removed for examination and blood samples were taken. In the second model, hepatic fibrosis was induced by bile duct ligation (BDL) of 8-9 weeks old male Wistar rats (see Fiorucci et al. (2004) Gastroenterology 14:1444-1356 and Fiorucci et al. (2004) Hepatology 39:365-75). Sham operated rats (n=6) received the same laparoscopic procedure, except that the bile duct was manipulated, but not ligated and sectioned. A total of 24 animals were operated. […] Animals were then treated for 14 days. […] Control rats were injected i.p. with 100 μl/100 g body weight of paraffin oil alone.

CN(CCOc1ccc(CC2SC(=O)NC2=O)cc1)c1ccccn1 (centres unmarked) [rosiglitazone]
edema [1]: signs of increasing peripheral edema
weight gained since initiating TZD therapy [1]: 6 kg
incidence of edema ([2]; 4 mg/day in combination with insulin (Raskin et al. 2001)): 13.1%
incidence of edema ([2]; 8 mg/day in combination with insulin (Raskin et al. 2001)): about 16.2%

CC[C@H]1[C@@H](O)[C@@H]2[C@H](CC[C@]3(C)[C@@H]([C@H](C)CCC(=O)O)CC[C@@H]23)[C@@]2(C)CC[C@@H](O)C[C@@H]12 [6-ECDCA]
expression of selected pro-fibrogenetic markers (α-SMA, fibronectin, TGFP1) ([3]; 1 mg/kg): reduced
histological score and liver hydroxyproline content ([3]; 1 mg/kg, in comparison to porcine serum alone): slightly reduced
protection against development of liver fibrosis ([3]; 3 mg/kg): effectively protected
increase of liver PPARγ mRNA ([3]; 3 mg/kg alone): 3-4 fold
increase of hepatic expression of UCP-2 ([3]; 3 mg/kg, P<0.05 versus control and porcine serum alone): 2-4 fold
liver function as measured by plasma ALT, alkaline phosphatase and bilirubin ([3]; 1 and 3 mg/kg, P>0.05 versus control and porcine serum-treated rats): did not affect liver function
ALP ([3]; oral 1 mg/kg (each drug)): 26.6 ± 2.5 U/dl
ALT ([3]; oral 1 mg/kg (each drug)): 47.4 ± 2.4 U/L
Bilirubin ([3]; oral 1 mg/kg (each drug)): 0.3 ± 0.01 mg/dL
Liver/b.w. ([3]; oral 1 mg/kg (each drug)): 3.8 ± 0.3%
ALP ([3]; oral 3 mg/kg (each drug)): 21.8 ± 5.2 U/dl
ALT ([3]; oral 3 mg/kg (each drug)): 41.9 ± 5.3 U/L
Bilirubin ([3]; oral 3 mg/kg (each drug)): 0.2 ± 0.01 mg/dL
Liver/b.w. ([3]; oral 3 mg/kg (each drug)): 2.9 ± 0.2%
increase in PPARγ mRNA and protein ([4]; primary HSCs grown seven days, 1 μM): 40 fold
increase of FXR mRNA (liver fibrosis): 1.8 fold
increase of SHP mRNA (liver fibrosis): 4 fold

CC(C)c1onc(-c2c(Cl)cccc2Cl)c1COc1ccc(/C=C/c2cccc(C(=O)O)c2)c(Cl)c1 [GW4064, reference compound]
downregulation of PPAR-γ caused by HSCs activation ([4]; primary HSCs): prevented the downregulation

CCc1ccc(CCOc2ccc(CC3SC(=O)NC3=O)cc2)nc1 (centres unmarked) [pioglitazone]
combined incidence of edema ([2]; 15 or 30 mg/day in combination with insulin (Rubin et al. 1999)): 15.3%
